Active and inactive are the calls of the source. The calls are words filed in the database; no cut-off is given here.
Key:
[1] = target: T1, Microtubule-associated protein tau (Homo sapiens, UniProt P10636); experiment: Displacement of Thioflavin S from recombinant human tau expressed in Escherichia coli after 30 mins by fluorescence assay
[2] = Displacement of Thioflavin S from amyloid beta (1 to 42) aggregates after 30 mins by fluorescence assay
[3] = species on record: Homo sapiens; experiment: Selectivity ratio Ki for amyloid beta (1 to 42) aggregates to Ki for recombinant human tau
[4] = target: T1, Microtubule-associated protein tau; experiment: Binding affinity to recombinant human tau expressed in Escherichia coli assessed per nanomolar of protein after 30 mins by fluorescence assay; settings: tested as the 18F-labelled form
[5] = Binding affinity to amyloid beta (1 to 42) aggregates assessed per nanomolar of protein after 30 mins by fluorescence assay; settings: tested as the 18F-labelled form
[6] = target: T1, Microtubule-associated protein tau; experiment: Binding affinity to tau protein in human alzheimer's disease patient brain white matter at 92.5 kBq after 2 hrs by immunohistological staining; format: tissue-based; settings: tested as the 18F-labelled form
[7] = target: Amyloid-beta precursor protein (Homo sapiens) (UniProt P05067); experiment: Binding affinity to amyloid beta (1 to 42) aggregates in human alzheimer's disease patient brain white matter at 92.5 kBq after 2 hrs by immunohistological staining; format: tissue-based; settings: tested as the 18F-labelled form
Amyloid-beta precursor protein (Homo sapiens), sequence (P05067 whole entry): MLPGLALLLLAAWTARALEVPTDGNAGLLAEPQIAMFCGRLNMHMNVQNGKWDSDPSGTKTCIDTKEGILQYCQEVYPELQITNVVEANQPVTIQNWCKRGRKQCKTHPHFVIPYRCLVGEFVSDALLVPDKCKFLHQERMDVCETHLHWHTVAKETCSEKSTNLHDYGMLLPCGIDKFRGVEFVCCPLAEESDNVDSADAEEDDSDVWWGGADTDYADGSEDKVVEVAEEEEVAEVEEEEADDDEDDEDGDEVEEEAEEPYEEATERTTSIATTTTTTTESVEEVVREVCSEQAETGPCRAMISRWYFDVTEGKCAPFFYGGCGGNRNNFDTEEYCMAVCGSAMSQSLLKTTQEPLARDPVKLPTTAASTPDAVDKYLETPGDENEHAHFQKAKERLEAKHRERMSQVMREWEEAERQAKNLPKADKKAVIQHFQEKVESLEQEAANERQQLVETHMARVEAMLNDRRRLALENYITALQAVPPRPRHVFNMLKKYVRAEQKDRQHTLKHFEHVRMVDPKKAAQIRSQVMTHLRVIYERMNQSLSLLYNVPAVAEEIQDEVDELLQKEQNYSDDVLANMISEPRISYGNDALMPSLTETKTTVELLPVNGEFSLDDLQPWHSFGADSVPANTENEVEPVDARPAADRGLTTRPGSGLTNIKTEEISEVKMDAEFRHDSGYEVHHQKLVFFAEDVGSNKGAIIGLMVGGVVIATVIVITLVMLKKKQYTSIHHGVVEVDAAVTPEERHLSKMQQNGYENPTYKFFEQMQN

[8] = species on record: Homo sapiens; experiment: Binding affinity to neurofibrillary tangles in human alzheimer's disease patient brain at 92.5 kBq after 30 mins by immunohistological staining
[9] = species on record: Homo sapiens; experiment: Binding affinity to senile plaques in human alzheimer's disease patient brain at 92.5 kBq after 30 mins by immunohistological staining
[10] = system: Brain; experiment: Biodistribution in mouse brain at 64.5 kBq, iv measured 2 mins post injection by gamma counting; format: ADME, organism-based; settings: in vivo
[11] = system: Brain; experiment: Biodistribution in mouse brain at 64.5 kBq, iv measured 60 mins post injection by gamma counting; format: ADME, organism-based; settings: in vivo, 1 h
[12] = Octanol-phosphate buffer partition coefficient, log P of the compound at 0.37 MBq after 10 mins by gamma counting; format: physicochemical
[13] = target: T1, Microtubule-associated protein tau; experiment: Binding affinity to recombinant human tau expressed in Escherichia coli after 30 mins by fluorescence assay
[14] = Binding affinity to amyloid beta (1 to 42) aggregates after 30 mins by fluorescence assay
[15] = system: Brain; experiment: Drug uptake in normal human brain at 92.5 kBq after 2 hrs by […]; format: ADME, tissue-based
[16] = system: Blood; experiment: Biodistribution in mouse blood at 64.5 kBq, iv measured 2 mins post injection by gamma counting; format: ADME, organism-based; settings: in vivo
[17] = system: Liver; experiment: Biodistribution in mouse liver at 64.5 kBq, iv measured 2 mins post injection by gamma counting; format: ADME, organism-based; settings: in vivo
[18] = system: Kidney; experiment: Biodistribution in mouse kidney at 64.5 kBq, iv measured 2 mins post injection by gamma counting; format: ADME, organism-based; settings: in vivo
[19] = system: Intestine; experiment: Biodistribution in mouse intestine at 64.5 kBq, iv measured 2 mins post injection by gamma counting; format: ADME, organism-based; settings: in vivo
[20] = system: Spleen; experiment: Biodistribution in mouse spleen at 64.5 kBq, iv measured 2 mins post injection by gamma counting; format: ADME, organism-based; settings: in vivo
[21] = system: Pancreas; experiment: Biodistribution in mouse pancreas at 64.5 kBq, iv measured 2 mins post injection by gamma counting; format: ADME, organism-based; settings: in vivo
[22] = system: Heart; experiment: Biodistribution in mouse heart at 64.5 kBq, iv measured 2 mins post injection by gamma counting; format: ADME, organism-based; settings: in vivo
[23] = system: Lung; experiment: Biodistribution in mouse lung at 64.5 kBq, iv measured 2 mins post injection by gamma counting; format: ADME, organism-based; settings: in vivo
[24] = system: Stomach; experiment: Biodistribution in mouse stomach at 64.5 kBq, iv measured 2 mins post injection by gamma counting; format: ADME, organism-based; settings: in vivo
[25] = system: Bone; experiment: Biodistribution in mouse bone at 64.5 kBq, iv measured 2 mins post injection by gamma counting; format: ADME, organism-based, Bone element; settings: in vivo
[26] = system: Blood; experiment: Biodistribution in mouse blood at 64.5 kBq, iv measured 10 mins post injection by gamma counting; format: ADME, organism-based; settings: in vivo
[27] = system: Liver; experiment: Biodistribution in mouse liver at 64.5 kBq, iv measured 10 mins post injection by gamma counting; format: ADME, organism-based; settings: in vivo
[28] = system: Kidney; experiment: Biodistribution in mouse kidney at 64.5 kBq, iv measured 10 mins post injection by gamma counting; format: ADME, organism-based; settings: in vivo
[29] = system: Intestine; experiment: Biodistribution in mouse intestine at 64.5 kBq, iv measured 10 mins post injection by gamma counting; format: ADME, organism-based; settings: in vivo
[30] = system: Spleen; experiment: Biodistribution in mouse spleen at 64.5 kBq, iv measured 10 mins post injection by gamma counting; format: ADME, organism-based; settings: in vivo
[31] = system: Pancreas; experiment: Biodistribution in mouse pancreas at 64.5 kBq, iv measured 10 mins post injection by gamma counting; format: ADME, organism-based; settings: in vivo
[32] = system: Heart; experiment: Biodistribution in mouse heart at 64.5 kBq, iv measured 10 mins post injection by gamma counting; format: ADME, organism-based; settings: in vivo
[33] = system: Lung; experiment: Biodistribution in mouse lung at 64.5 kBq, iv measured 10 mins post injection by gamma counting; format: ADME, organism-based; settings: in vivo
[34] = system: Stomach; experiment: Biodistribution in mouse stomach at 64.5 kBq, iv measured 10 mins post injection by gamma counting; format: ADME, organism-based; settings: in vivo
[35] = system: Brain; experiment: Biodistribution in mouse brain at 64.5 kBq, iv measured 10 mins post injection by gamma counting; format: ADME, organism-based; settings: in vivo
[36] = system: Bone; experiment: Biodistribution in mouse bone at 64.5 kBq, iv measured 10 mins post injection by gamma counting; format: ADME, organism-based, Bone element; settings: in vivo
[37] = system: Blood; experiment: Biodistribution in mouse blood at 64.5 kBq, iv measured 30 mins post injection by gamma counting; format: ADME, organism-based; settings: in vivo, 0.5 h
[38] = system: Liver; experiment: Biodistribution in mouse liver at 64.5 kBq, iv measured 30 mins post injection by gamma counting; format: ADME, organism-based; settings: in vivo, 0.5 h
[39] = system: Kidney; experiment: Biodistribution in mouse kidney at 64.5 kBq, iv measured 30 mins post injection by gamma counting; format: ADME, organism-based; settings: in vivo, 0.5 h
[40] = system: Intestine; experiment: Biodistribution in mouse intestine at 64.5 kBq, iv measured 30 mins post injection by gamma counting; format: ADME, organism-based; settings: in vivo, 0.5 h
[41] = system: Spleen; experiment: Biodistribution in mouse spleen at 64.5 kBq, iv measured 30 mins post injection by gamma counting; format: ADME, organism-based; settings: in vivo, 0.5 h
[42] = system: Pancreas; experiment: Biodistribution in mouse pancreas at 64.5 kBq, iv measured 30 mins post injection by gamma counting; format: ADME, organism-based; settings: in vivo, 0.5 h
[43] = system: Heart; experiment: Biodistribution in mouse heart at 64.5 kBq, iv measured 30 mins post injection by gamma counting; format: ADME, organism-based; settings: in vivo, 0.5 h
[44] = system: Lung; experiment: Biodistribution in mouse lung at 64.5 kBq, iv measured 30 mins post injection by gamma counting; format: ADME, organism-based; settings: in vivo, 0.5 h
[45] = system: Stomach; experiment: Biodistribution in mouse stomach at 64.5 kBq, iv measured 30 mins post injection by gamma counting; format: ADME, organism-based; settings: in vivo, 0.5 h
[46] = system: Brain; experiment: Biodistribution in mouse brain at 64.5 kBq, iv measured 30 mins post injection by gamma counting; format: ADME, organism-based; settings: in vivo, 0.5 h
[47] = system: Bone; experiment: Biodistribution in mouse bone at 64.5 kBq, iv measured 30 mins post injection by gamma counting; format: ADME, organism-based, Bone element; settings: in vivo, 0.5 h
[48] = system: Blood; experiment: Biodistribution in mouse blood at 64.5 kBq, iv measured 60 mins post injection by gamma counting; format: ADME, organism-based; settings: in vivo, 1 h
[49] = system: Liver; experiment: Biodistribution in mouse liver at 64.5 kBq, iv measured 60 mins post injection by gamma counting; format: ADME, organism-based; settings: in vivo, 1 h
[50] = system: Kidney; experiment: Biodistribution in mouse kidney at 64.5 kBq, iv measured 60 mins post injection by gamma counting; format: ADME, organism-based; settings: in vivo, 1 h
[51] = system: Intestine; experiment: Biodistribution in mouse intestine at 64.5 kBq, iv measured 60 mins post injection by gamma counting; format: ADME, organism-based; settings: in vivo, 1 h
[52] = system: Spleen; experiment: Biodistribution in mouse spleen at 64.5 kBq, iv measured 60 mins post injection by gamma counting; format: ADME, organism-based; settings: in vivo, 1 h
[53] = system: Pancreas; experiment: Biodistribution in mouse pancreas at 64.5 kBq, iv measured 60 mins post injection by gamma counting; format: ADME, organism-based; settings: in vivo, 1 h
[54] = system: Heart; experiment: Biodistribution in mouse heart at 64.5 kBq, iv measured 60 mins post injection by gamma counting; format: ADME, organism-based; settings: in vivo, 1 h
[55] = system: Lung; experiment: Biodistribution in mouse lung at 64.5 kBq, iv measured 60 mins post injection by gamma counting; format: ADME, organism-based; settings: in vivo, 1 h
[56] = system: Stomach; experiment: Biodistribution in mouse stomach at 64.5 kBq, iv measured 60 mins post injection by gamma counting; format: ADME, organism-based; settings: in vivo, 1 h
[57] = system: Bone; experiment: Biodistribution in mouse bone at 64.5 kBq, iv measured 60 mins post injection by gamma counting; format: ADME, organism-based, Bone element; settings: in vivo, 1 h

T1 sequence (P10636 whole entry): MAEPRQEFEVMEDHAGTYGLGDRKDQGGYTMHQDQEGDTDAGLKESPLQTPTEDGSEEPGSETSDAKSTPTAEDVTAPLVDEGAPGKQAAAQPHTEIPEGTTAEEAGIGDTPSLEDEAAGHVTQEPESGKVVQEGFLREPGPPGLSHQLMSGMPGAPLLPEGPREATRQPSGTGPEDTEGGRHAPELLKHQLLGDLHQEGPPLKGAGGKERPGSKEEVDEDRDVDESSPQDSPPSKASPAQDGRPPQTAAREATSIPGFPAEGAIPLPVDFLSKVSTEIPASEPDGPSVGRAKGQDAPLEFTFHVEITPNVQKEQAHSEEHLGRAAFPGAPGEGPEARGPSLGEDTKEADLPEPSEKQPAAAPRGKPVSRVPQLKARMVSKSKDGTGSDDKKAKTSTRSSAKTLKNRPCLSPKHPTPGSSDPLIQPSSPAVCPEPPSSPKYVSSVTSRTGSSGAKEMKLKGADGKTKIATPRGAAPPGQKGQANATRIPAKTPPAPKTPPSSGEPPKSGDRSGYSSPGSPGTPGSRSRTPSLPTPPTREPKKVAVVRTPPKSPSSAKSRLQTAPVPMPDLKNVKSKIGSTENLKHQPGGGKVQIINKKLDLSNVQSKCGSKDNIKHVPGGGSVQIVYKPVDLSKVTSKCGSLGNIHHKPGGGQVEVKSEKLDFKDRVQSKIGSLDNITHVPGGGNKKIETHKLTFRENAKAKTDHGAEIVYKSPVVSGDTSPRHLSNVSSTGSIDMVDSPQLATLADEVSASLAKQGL

CN(C)c1ccc(/N=N/c2nc3ccc(OCCOCCOCCF)cc3s2)cc1
IC50 [1]: 256 nM
Ki [1]: 13 nM
IC50 [2]: 47.3 nM
Ki [2]: 20 nM
Ratio Ki [3]: 1.54
Bmax [4]: 45.8 pmol
Bmax [5]: 38.9 pmol
Activity [6]: Active
Activity [7]: Active
Activity [8]: Active
Activity [9]: Active

CN(C)c1ccc(/N=N/c2nc3ccc([125I])cc3s2)cc1
Drug uptake [10]: 0.94 % ID/g
Drug uptake [11]: 2.89 % ID/g
logP at 10 min [12]: 3.84

CN(C)c1ccc(/N=N/c2nc3ccc(I)cc3s2)cc1
Ki [1]: 0.48 nM
Ratio Ki [3]: 17.2

CN(C)c1ccc(/N=N/c2nc3ccc(OCCOCCOCC[18F])cc3s2)cc1
Kd [13]: 44.8 nM
Kd [14]: 45.4 nM
Drug uptake [15]: Not Active
Drug uptake [16]: 3.04 % ID/g
Drug uptake [17]: 20.2 % ID/g
Drug uptake [18]: 13.9 % ID/g
Drug uptake [19]: 2.94 % ID/g
Drug uptake [20]: 3.47 % ID/g
Drug uptake [21]: 5.41 % ID/g
Drug uptake [22]: 7.45 % ID/g
Drug uptake [23]: 13.5 % ID/g
Drug uptake [24]: 1.11 %ID
Drug uptake [10]: 4.28 % ID/g
Drug uptake [25]: 1.88 % ID/g
Drug uptake [26]: 1.83 % ID/g
Drug uptake [27]: 19.3 % ID/g
Drug uptake [28]: 7.67 % ID/g
Drug uptake [29]: 4.99 % ID/g
Drug uptake [30]: 3.41 % ID/g
Drug uptake [31]: 4.01 % ID/g
Drug uptake [32]: 4.14 % ID/g
Drug uptake [33]: 4.37 % ID/g
Drug uptake [34]: 1.42 %ID
Drug uptake [35]: 4.26 % ID/g
Drug uptake [36]: 1.82 % ID/g
Drug uptake [37]: 2.19 % ID/g
Drug uptake [38]: 13.1 % ID/g
Drug uptake [39]: 5.08 % ID/g
Drug uptake [40]: 14.4 % ID/g
Drug uptake [41]: 2.71 % ID/g
Drug uptake [42]: 2.87 % ID/g
Drug uptake [43]: 3.05 % ID/g
Drug uptake [44]: 3.36 % ID/g
Drug uptake [45]: 2.69 %ID
Drug uptake [46]: 3.47 % ID/g
Drug uptake [47]: 1.82 % ID/g
Drug uptake [48]: 2.68 % ID/g
Drug uptake [49]: 9.32 % ID/g
Drug uptake [50]: 4 % ID/g
Drug uptake [51]: 22.9 % ID/g
Drug uptake [52]: 2.14 % ID/g
Drug uptake [53]: 2.18 % ID/g
Drug uptake [54]: 2.62 % ID/g
Drug uptake [55]: 3.59 % ID/g
Drug uptake [56]: 3.37 %ID
Drug uptake [11]: 2.53 % ID/g
Drug uptake [57]: 1.92 % ID/g
logP at 10 min [12]: 2.05

— ChEMBL document CHEMBL2034855, “(18)F-labeled phenyldiazenyl benzothiazole for in vivo imaging of neurofibrillary tangles in Alzheimer's disease brains” (ACS Med Chem Lett, 2012)
